For experiment [1], the target named is Death-associated protein kinase 2 (Homo sapiens) (UniProt Q9UIK4). The experiment can be described thus: Selectivity interaction (ProQinase) EUB0000171b DAPK2.
Experiment [2] has as its target CDK6/cyclin D3 (Homo sapiens) (UniProt P30281+Q00534). Put plainly: (§1) Selectivity interaction (ProQinase) EUB0000171b CDK6. The format is protein-complex assay.
The target in experiment [3] is CDK6/cyclin D1 (Homo sapiens) (UniProt P24385+Q00534). The description is as §1. The format is protein-complex assay.
In experiment [4] the target is T1, Mitogen-activated protein kinase 13 (Homo sapiens) (UniProt O15264).
T1 sequence (whole entry): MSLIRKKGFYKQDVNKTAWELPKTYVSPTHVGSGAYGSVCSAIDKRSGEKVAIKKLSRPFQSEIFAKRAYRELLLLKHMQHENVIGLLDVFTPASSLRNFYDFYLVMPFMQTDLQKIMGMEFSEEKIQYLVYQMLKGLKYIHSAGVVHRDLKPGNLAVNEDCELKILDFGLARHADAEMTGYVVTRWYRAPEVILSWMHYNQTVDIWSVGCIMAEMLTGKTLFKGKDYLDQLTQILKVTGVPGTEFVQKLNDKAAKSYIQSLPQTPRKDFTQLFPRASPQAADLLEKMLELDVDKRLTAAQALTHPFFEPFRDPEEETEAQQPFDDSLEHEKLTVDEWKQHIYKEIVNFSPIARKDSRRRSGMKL
The experiment can be described thus: Selectivity interaction (KinomeScan (DiscoverX)) EUB0001049a MAPK13. The following applies: at 1 µM.

Experiment [5] concerns the target T2, Serine/threonine-protein kinase Sgk2 (Homo sapiens) (UniProt Q9HBY8).
T2 sequence (whole entry): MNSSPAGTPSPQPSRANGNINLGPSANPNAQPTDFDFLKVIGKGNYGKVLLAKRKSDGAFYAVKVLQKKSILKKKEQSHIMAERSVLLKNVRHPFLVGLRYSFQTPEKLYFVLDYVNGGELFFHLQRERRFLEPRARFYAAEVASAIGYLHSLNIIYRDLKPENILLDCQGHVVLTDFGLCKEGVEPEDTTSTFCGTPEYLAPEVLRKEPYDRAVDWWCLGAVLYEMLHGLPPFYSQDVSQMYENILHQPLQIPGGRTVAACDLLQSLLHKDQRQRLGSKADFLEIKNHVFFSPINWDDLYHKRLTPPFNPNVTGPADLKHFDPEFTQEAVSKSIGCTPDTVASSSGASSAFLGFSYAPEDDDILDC
The experiment can be described thus: Selectivity interaction (Kinase screening (Nanosyn)) EUB0000604a SGK2.

Experiment [6] concerns the target T3, Phosphatidylinositol 3-kinase C2 domain-containing subunit gamma (Homo sapiens) (UniProt O75747).
T3 sequence (whole entry): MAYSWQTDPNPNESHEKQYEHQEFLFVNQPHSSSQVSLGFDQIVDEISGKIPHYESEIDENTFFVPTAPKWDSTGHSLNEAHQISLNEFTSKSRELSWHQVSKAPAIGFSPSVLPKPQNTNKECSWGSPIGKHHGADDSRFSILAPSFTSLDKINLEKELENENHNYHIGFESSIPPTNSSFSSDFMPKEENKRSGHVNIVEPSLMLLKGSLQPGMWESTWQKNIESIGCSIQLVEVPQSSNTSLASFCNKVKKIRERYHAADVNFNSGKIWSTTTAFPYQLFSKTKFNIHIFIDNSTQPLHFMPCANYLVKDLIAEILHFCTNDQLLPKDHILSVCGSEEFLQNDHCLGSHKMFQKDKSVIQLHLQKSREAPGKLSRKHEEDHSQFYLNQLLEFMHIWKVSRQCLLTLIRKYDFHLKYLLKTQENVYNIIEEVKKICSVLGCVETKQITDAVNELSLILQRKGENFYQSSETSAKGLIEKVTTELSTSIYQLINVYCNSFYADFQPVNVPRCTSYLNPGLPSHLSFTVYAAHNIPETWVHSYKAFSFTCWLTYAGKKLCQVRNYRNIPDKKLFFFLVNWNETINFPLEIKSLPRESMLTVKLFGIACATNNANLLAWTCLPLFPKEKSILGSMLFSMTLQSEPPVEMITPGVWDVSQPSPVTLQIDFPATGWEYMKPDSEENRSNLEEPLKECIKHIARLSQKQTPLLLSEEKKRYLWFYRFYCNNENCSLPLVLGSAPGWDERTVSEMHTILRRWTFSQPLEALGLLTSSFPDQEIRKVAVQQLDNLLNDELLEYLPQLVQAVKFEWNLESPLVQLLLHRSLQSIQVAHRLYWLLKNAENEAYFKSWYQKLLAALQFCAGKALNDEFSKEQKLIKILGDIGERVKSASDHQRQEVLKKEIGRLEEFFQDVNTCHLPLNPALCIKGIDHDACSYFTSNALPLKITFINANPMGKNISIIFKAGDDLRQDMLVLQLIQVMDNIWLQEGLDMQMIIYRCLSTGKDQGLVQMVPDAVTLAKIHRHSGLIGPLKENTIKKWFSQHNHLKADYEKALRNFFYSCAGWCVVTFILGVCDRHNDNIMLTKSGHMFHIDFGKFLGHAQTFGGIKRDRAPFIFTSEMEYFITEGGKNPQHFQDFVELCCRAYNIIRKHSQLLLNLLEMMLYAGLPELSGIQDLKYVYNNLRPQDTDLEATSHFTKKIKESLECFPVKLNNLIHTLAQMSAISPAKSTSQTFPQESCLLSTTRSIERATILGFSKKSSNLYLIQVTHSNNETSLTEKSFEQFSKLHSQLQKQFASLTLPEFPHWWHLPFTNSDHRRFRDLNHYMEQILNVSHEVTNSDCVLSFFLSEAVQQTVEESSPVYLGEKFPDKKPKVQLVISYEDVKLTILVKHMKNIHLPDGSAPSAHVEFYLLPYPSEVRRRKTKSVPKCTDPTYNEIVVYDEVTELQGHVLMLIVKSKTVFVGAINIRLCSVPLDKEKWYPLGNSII
The experiment can be described thus: Selectivity interaction (KinomeScan (DiscoverX)) EUB0000607a PIK3C2G. The note with it: at 10 µM.

The target in experiment [7] is Tyrosine-protein kinase Lyn (Homo sapiens, UniProt P07948). Put plainly: Selectivity interaction (KinomeScan (DiscoverX)) EUB0000607a LYN. The following applies: at 10 µM.
Experiment [8] addresses RAF proto-oncogene serine/threonine-protein kinase (Homo sapiens) (UniProt P04049). The experiment can be described thus: Selectivity interaction (Kinase panel (KiNativ target engagement assay in Jurkat cells)) EUB0001635a RAF1. The format is cell-based. The following applies: Selectivity number of off-targets 0.0, Selectivity number of targets 233.0, Source Knowledge https://www.sciencedirect.com/science/article/pii/S2451945619300674?via%3Dihub, at 1 µM.

Five molecules from ChEMBL document CHEMBL5465560, “Selectivity Literature for EUbOPEN Chemogenomic Library” (2024) can be followed below.

Chain of Death-associated protein kinase 2 (Homo sapiens) (Q9UIK4 whole entry, looked up): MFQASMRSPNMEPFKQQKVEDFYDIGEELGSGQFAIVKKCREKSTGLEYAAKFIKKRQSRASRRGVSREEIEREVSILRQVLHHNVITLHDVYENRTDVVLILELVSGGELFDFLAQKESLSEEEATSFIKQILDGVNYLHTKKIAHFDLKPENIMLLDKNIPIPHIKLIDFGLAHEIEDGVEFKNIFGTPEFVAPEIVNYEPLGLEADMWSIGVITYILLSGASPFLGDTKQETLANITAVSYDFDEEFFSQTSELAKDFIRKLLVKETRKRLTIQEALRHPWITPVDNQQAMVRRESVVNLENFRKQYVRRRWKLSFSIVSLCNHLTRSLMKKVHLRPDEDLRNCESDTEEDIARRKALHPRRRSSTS
Chain of Tyrosine-protein kinase Lyn (P07948 2-512 limits assumed): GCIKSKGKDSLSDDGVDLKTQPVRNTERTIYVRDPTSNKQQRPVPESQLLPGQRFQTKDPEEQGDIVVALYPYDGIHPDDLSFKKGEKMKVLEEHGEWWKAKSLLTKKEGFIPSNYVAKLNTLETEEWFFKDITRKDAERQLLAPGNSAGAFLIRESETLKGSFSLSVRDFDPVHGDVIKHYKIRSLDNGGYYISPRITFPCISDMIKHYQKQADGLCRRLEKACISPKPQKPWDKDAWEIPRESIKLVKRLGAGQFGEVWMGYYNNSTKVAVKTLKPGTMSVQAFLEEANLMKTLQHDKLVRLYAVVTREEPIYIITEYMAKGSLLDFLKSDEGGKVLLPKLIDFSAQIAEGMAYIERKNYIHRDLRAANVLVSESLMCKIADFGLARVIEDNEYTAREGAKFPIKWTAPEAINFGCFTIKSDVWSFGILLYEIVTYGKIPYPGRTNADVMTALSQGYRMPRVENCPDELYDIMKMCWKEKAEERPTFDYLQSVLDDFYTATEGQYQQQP
Chain of RAF proto-oncogene serine/threonine-protein kinase (Homo sapiens) (P04049 whole entry): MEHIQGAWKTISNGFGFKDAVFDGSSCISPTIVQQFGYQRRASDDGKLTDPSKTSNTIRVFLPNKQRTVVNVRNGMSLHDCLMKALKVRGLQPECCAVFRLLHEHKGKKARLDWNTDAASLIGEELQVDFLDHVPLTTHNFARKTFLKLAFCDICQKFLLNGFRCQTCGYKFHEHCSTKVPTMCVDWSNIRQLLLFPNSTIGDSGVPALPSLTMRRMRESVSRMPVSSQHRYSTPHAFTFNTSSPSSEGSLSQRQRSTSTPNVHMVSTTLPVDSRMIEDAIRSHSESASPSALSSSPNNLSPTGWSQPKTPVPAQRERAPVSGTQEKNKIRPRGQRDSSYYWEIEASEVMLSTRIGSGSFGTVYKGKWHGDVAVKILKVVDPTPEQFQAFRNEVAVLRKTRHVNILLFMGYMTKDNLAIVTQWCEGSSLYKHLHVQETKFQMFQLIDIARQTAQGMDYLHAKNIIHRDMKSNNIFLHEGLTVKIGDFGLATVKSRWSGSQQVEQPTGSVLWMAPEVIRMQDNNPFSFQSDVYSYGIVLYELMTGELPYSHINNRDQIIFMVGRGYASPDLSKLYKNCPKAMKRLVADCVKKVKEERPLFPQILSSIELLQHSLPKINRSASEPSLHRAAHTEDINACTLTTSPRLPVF

For the molecule `C=CC(=O)Nc1cccc(C(=O)Nc2ccc(Nc3cc(-c4[nH]c(SC)nc4C)ccn3)cc2)c1`, the % of control in experiment [1] (at 1 µM) came to 92%; in experiment [1] (at 5 µM) it was 78%; in experiment [2] (at 1 µM) it was 93%; in experiment [2] (at 5 µM) it was 86%; in experiment [3] (at 1 µM) it was 91%; in experiment [3] (at 5 µM) it was 87%.

The molecule `COc1cc(Nc2nc(C)cc(-c3cnn4nc(OC)ccc34)n2)cc(C(F)(F)F)c1` gave a % of control in experiment [4] of 95%.

The molecule `Cc1cnc(Nc2ccc(F)cc2Cl)nc1-c1c[nH]c(C(=O)N[C@H](CO)c2cccc(Cl)c2)c1` registered a % of inhibition in experiment [5] of 41%.

For the molecule `CNC(=O)Nc1ccc(-c2nc(N3CC4CCC(C3)O4)c3cnn(C4CCC5(CC4)OCCO5)c3n2)cc1`, the % of control in experiment [6] stood at 22%; in experiment [7] it was 85%.

As to `C=CC(=O)Nc1ccc(C(=O)Nc2[nH]nc3c2CN(C(=O)N[C@H](CN(C)C)c2ccccc2)C3(C)C)cc1`, in experiment [8], the % of engagement is -6.3%.
